Data taken from PubChem BioAssay AID248 (DTP/NCI, 2004).
“And” between values parts separate entries of the source, which are not always exact repeats. Equal entries are not always repeated. Toxic doses and inconclusive results are not listed. Cut-off read from the data, not from the text of the source: active = T/C of 150% or more; inactive = T/C below 125%.

Test system: L1210 leukemia ip in BDF1 mice, survival T/C
Experiment: NCI In Vivo Anticancer Drug Screen. Data for tumor model L1210 Leukemia (intraperitoneal) in B6D2F1 (BDF1) mice
Settings: endpoint: mean survival time, higher = longer survival
Procedure, shortened: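 Ratio derived from survival: compound-dosed mice over vehicle-dosed mice, all bearing a transplantable tumor.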

[1] = dose: 100.0 mg/kg/injection, schedule: Q01DX001 (ip), vehicle: saline
[2] = dose: 200.0 mg/kg/injection, schedule: Q01DX001 (ip), vehicle: saline
[3] = dose: 100.0 mg/kg/injection, schedule: Q04DX002 (ip), vehicle: saline with Tween-80
[4] = dose: 400.0 mg/kg/injection, schedule: Q04DX002 (ip), vehicle: saline with Tween-80
[5] = dose: 100.0 mg/kg/injection, schedule: Q04DX003 (ip), vehicle: saline with Tween-80
[6] = dose: 400.0 mg/kg/injection, schedule: Q04DX003 (ip), vehicle: saline with Tween-80
[7] = dose: 100.0 mg/kg/injection, schedule: Q01DX009 (ip), vehicle: Klucel (hydroxypropylcellulose) (HPC)
[8] = dose: 200.0 mg/kg/injection, schedule: Q01DX009 (ip), vehicle: Klucel (hydroxypropylcellulose) (HPC)
[9] = dose: 100.0 mg/kg/injection, schedule: Q01DX001 (ip), vehicle: carboxymethylcellulose (CMC)
[10] = dose: 200.0 mg/kg/injection, schedule: Q01DX001 (ip), vehicle: carboxymethylcellulose (CMC)
[11] = dose: 100.0 mg/kg/injection, schedule: Q04DX003 (ip), vehicle: Klucel (hydroxypropylcellulose) (HPC)
[12] = dose: 200.0 mg/kg/injection, schedule: Q04DX003 (ip), vehicle: Klucel (hydroxypropylcellulose) (HPC)
[13] = dose: 400.0 mg/kg/injection, schedule: Q04DX003 (ip), vehicle: Klucel (hydroxypropylcellulose) (HPC)
[14] = dose: 400.0 mg/kg/injection, schedule: Q01DX009 (ip), vehicle: Klucel (hydroxypropylcellulose) (HPC)
[15] = dose: 200.0 mg/kg/injection, schedule: Q04DX003 (ip), vehicle: saline with Tween-80

Measured: T/C

CN(C)c1ccc(/C=C/c2ccc3ccccc3[n+]2C)cc1
inactive: dose: 1.5 mg/kg/injection, schedule: Q01DX009 (ip), vehicle: Klucel (hydroxypropylcellulose) (HPC) 103 % of control | dose: 3.0 mg/kg/injection, schedule: Q01DX009 (ip), vehicle: Klucel (hydroxypropylcellulose) (HPC) 97 % of control | dose: 3.12 mg/kg/injection, schedule: Q01DX009 (ip), vehicle: Klucel (hydroxypropylcellulose) (HPC) 100 % of control | dose: 6.0 mg/kg/injection, schedule: Q04DX003 (ip), vehicle: Klucel (hydroxypropylcellulose) (HPC) 107 % of control | dose: 6.25 mg/kg/injection, schedule: Q01DX009 (ip), vehicle: Klucel (hydroxypropylcellulose) (HPC) 104 % of control | dose: 12.0 mg/kg/injection, schedule: Q04DX003 (ip), vehicle: Klucel (hydroxypropylcellulose) (HPC) 107 % of control | dose: 12.5 mg/kg/injection, schedule: Q01DX009 (ip), vehicle: Klucel (hydroxypropylcellulose) (HPC) 107 % of control | dose: 25.0 mg/kg/injection, schedule: Q01DX009 (ip), vehicle: Klucel (hydroxypropylcellulose) (HPC) 96 % of control | dose: 25.0 mg/kg/injection, schedule: Q04DX003 (ip), vehicle: Klucel (hydroxypropylcellulose) (HPC) 86 % of control | [1] 112 % of control | [2] 121 % of control

O=[N+]([O-])c1ccc(NN=C2c3ccccc3Cc3ccccc32)c([N+](=O)[O-])c1
inactive: [3] 87 % of control | [4] 94 % of control

Nc1ncnc(N)c1NC(=O)c1ccc(-c2ccccc2)cc1
inactive: [5] 91 % of control | [6] 86 % of control

O=c1[nH]c2nc3ccccc3nc2c(=O)n1O
inactive: [7] 100 % of control | [8] 105 % of control

Cc1cc(C[P+](c2ccccc2)(c2ccccc2)c2ccccc2)c(C[P+](c2ccccc2)(c2ccccc2)c2ccccc2)cc1C
inactive: dose: 1.5 mg/kg/injection, schedule: Q04DX003 (ip), vehicle: saline 104 % of control | dose: 3.0 mg/kg/injection, schedule: Q01DX009 (ip), vehicle: saline 97 % of control | dose: 3.0 mg/kg/injection, schedule: Q04DX003 (ip), vehicle: saline 106 % of control | dose: 6.0 mg/kg/injection, schedule: Q01DX009 (ip), vehicle: saline 94 % of control | dose: 6.0 mg/kg/injection, schedule: Q04DX003 (ip), vehicle: saline 98 % of control

N#Cc1cccc(C(=O)Cl)c1
inactive: dose: 25.0 mg/kg/injection, schedule: Q01DX009 (ip), vehicle: carboxymethylcellulose (CMC) 95 % of control and 96 % of control | dose: 50.0 mg/kg/injection, schedule: Q01DX009 (ip), vehicle: carboxymethylcellulose (CMC) 100 % of control and 89 % of control | [9] 92 % of control | dose: 100.0 mg/kg/injection, schedule: Q01DX009 (ip), vehicle: carboxymethylcellulose (CMC) 92 % of control and 95 % of control and 96 % of control | dose: 100.0 mg/kg/injection, schedule: Q04DX002 (ip), vehicle: carboxymethylcellulose (CMC) 95 % of control and 89 % of control | dose: 100.0 mg/kg/injection, schedule: Q04DX003 (ip), vehicle: carboxymethylcellulose (CMC) 96 % of control and 100 % of control | [10] 92 % of control and 98 % of control | dose: 200.0 mg/kg/injection, schedule: Q04DX002 (ip), vehicle: carboxymethylcellulose (CMC) 95 % of control | dose: 200.0 mg/kg/injection, schedule: Q04DX003 (ip), vehicle: carboxymethylcellulose (CMC) 96 % of control and 100 % of control | dose: 400.0 mg/kg/injection, schedule: Q04DX003 (ip), vehicle: carboxymethylcellulose (CMC) 91 % of control

O=C1CCC/C1=C/c1ccccc1
inactive: [9] 97 % of control | [11] 93 % of control | [10] 91 % of control | [12] 95 % of control | dose: 400.0 mg/kg/injection, schedule: Q01DX001 (ip), vehicle: carboxymethylcellulose (CMC) 91 % of control | [13] 88 % of control

CC(=O)Nc1ccc(C#N)c2ccccc12
inactive: [7] 97 % of control | [11] 102 % of control | [8] 98 % of control | [12] 102 % of control | [14] 103 % of control | [13] 97 % of control

O=[N+]([O-])c1cc(Cl)cc2c1nc(Cl)c1ccccc12
inactive: [7] 94 % of control | [11] 100 % of control | [8] 91 % of control | [12] 98 % of control | [14] 91 % of control | [13] 100 % of control

Nc1nc2c(c(-c3ccccc3)n1)CN(CCCC(=O)O)C2=O
inactive: [1] 103 % of control | dose: 100.0 mg/kg/injection, schedule: Q04DX003 (ip), vehicle: saline 100 % of control | [2] 105 % of control | dose: 200.0 mg/kg/injection, schedule: Q04DX003 (ip), vehicle: saline 98 % of control | dose: 400.0 mg/kg/injection, schedule: Q01DX001 (ip), vehicle: saline 97 % of control | dose: 400.0 mg/kg/injection, schedule: Q04DX003 (ip), vehicle: saline 100 % of control

CCS(=O)(=O)N1CCCC(C)C1 (stereo not given)
inactive: [3] 105 % of control | dose: 200.0 mg/kg/injection, schedule: Q04DX002 (ip), vehicle: saline with Tween-80 92 % of control | [4] 92 % of control

C[n+]1ccccc1Cl
inactive: dose: 50.0 mg/kg/injection, schedule: Q04DX002 (ip), vehicle: saline 115 % of control | dose: 100.0 mg/kg/injection, schedule: Q04DX002 (ip), vehicle: saline 108 % of control | dose: 200.0 mg/kg/injection, schedule: Q04DX002 (ip), vehicle: saline 110 % of control

COC(=O)CN(c1c(C)cc(C)c(NS(=O)(=O)c2ccccc2)c1C)S(=O)(=O)c1ccccc1
inactive: dose: 100.0 mg/kg/injection, schedule: Q01DX001 (ip), vehicle: Klucel (hydroxypropylcellulose) (HPC) 92 % of control | dose: 200.0 mg/kg/injection, schedule: Q01DX001 (ip), vehicle: Klucel (hydroxypropylcellulose) (HPC) 96 % of control | dose: 400.0 mg/kg/injection, schedule: Q01DX001 (ip), vehicle: Klucel (hydroxypropylcellulose) (HPC) 97 % of control

CC(=O)Oc1cc2ccccc2cc1C(C)C
inactive: dose: 100.0 mg/kg/injection, schedule: Q01DX009 (ip), vehicle: saline with Tween-80 98 % of control | [5] 103 % of control | dose: 200.0 mg/kg/injection, schedule: Q01DX009 (ip), vehicle: saline with Tween-80 98 % of control | [15] 95 % of control | dose: 400.0 mg/kg/injection, schedule: Q01DX009 (ip), vehicle: saline with Tween-80 88 % of control | [6] 90 % of control

CCOc1nc(N)nc2c1-c1ccccc1CC2
inactive: [5] 97 % of control | [15] 97 % of control | [6] 90 % of control

Cc1ccc2c(ccc(/C=C/c3ccnc4c(O)cccc34)[n+]2C)c1
inactive: dose: 25.0 mg/kg/injection, schedule: Q01DX001 (ip), vehicle: saline 99 % of control | dose: 35.0 mg/kg/injection, schedule: Q01DX001 (ip), vehicle: saline 111 % of control | dose: 55.0 mg/kg/injection, schedule: Q01DX001 (ip), vehicle: saline 119 % of control | dose: 85.0 mg/kg/injection, schedule: Q01DX001 (ip), vehicle: saline 123 % of control | dose: 132.0 mg/kg/injection, schedule: Q01DX001 (ip), vehicle: saline 115 % of control and 121 % of control | dose: 198.0 mg/kg/injection, schedule: Q01DX001 (ip), vehicle: saline 117 % of control

C=C(Cl)COC1CCS(=O)(=O)C1 (stereo not given)
inactive: dose: 6.25 mg/kg/injection, schedule: Q01DX009 (ip), vehicle: saline with Tween-80 94 % of control and 101 % of control | dose: 12.5 mg/kg/injection, schedule: Q01DX009 (ip), vehicle: saline with Tween-80 95 % of control and 97 % of control | dose: 25.0 mg/kg/injection, schedule: Q01DX009 (ip), vehicle: saline with Tween-80 100 % of control and 122 % of control | dose: 50.0 mg/kg/injection, schedule: Q01DX009 (ip), vehicle: saline with Tween-80 97 % of control

CCCCCCCCC(O)CC (stereo not given)
inactive: [7] 93 % of control and 96 % of control | [11] 103 % of control | [8] 96 % of control | [12] 97 % of control | [14] 92 % of control and 105 % of control | [13] 97 % of control

COc1ccc(-c2cnc(=O)[nH]c2N)cc1
inactive: [11] 101 % of control | [12] 104 % of control

CCSc1c(Cl)c(Cl)c(Cl)c(Cl)c1Cl
inactive: [7] 97 % of control | [8] 100 % of control | [14] 87 % of control
